# The METLIN SMRT retention time set (Domingo-Almenara et al. 2019)
# Experiment: gradient 5% acetonitrile 3 min, to 50% in 2 min, to 85% in 15 min, held 3 min, 100 µL/min
# Details: column: Zorbax Extend-C18 2.1 x 50 mm; eluents: water / acetonitrile, 0.1% formic acid
# In short: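 Values are retention times taken from adduct peaks that software picked and an analyst inspected. The pure standards were run as mixtures of ~100 molecules on HPLC linked to a quadrupole time-of-flight mass spectrometer, in positive and negative ionization mode. A Zorbax Extend-C18 column (2.1 × 50 mm, 1.8 μm) was used at 100 μL/min with water and acetonitrile, each including 0.1% formic acid.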
row,SMILES,RP-LC retention time [s]
1,CC(=O)N(Cc1nn(C)c2c1CN(CC1=Cc3ccccc3OC1)CC2)c1ccccc1,654
2,COc1ccccc1NC(=O)Cn1cccc(-c2nc(-c3ccc(Br)cc3)no2)c1=O,1000
3,CCOC(=O)c1noc2ncnc(Nc3ccc(CN4CCN(CC)CC4)cc3)c12,638
4,CCNC(=O)C(=O)NCC(c1ccc2c(c1)CCCN2C)N1CCCCC1 (stereo not given),649
5,CN(C)CC1CN(C(=O)c2cc(F)ccc2F)CC12CCOCC2 (stereo not given),572
6,CCOc1ccccc1NC(=O)C1CCCN(c2nc3ccccc3nc2OC)C1 (stereo not given),1220
7,O=S(=O)(c1ccc2c(c1)CCCC2)N1CCN(Cc2nnnn2-c2ccccc2)CC1,991
8,O=C(CCc1nnc2ccc(N3CCCCC3)nn12)N1CCN(c2ccccn2)CC1,597
9,Cc1ccc(C(=O)Nc2cnn(-c3ncncc3N3CCC(C)CC3)c2)s1,909
10,Cc1cnc(-c2ccccc2)n1C1CN(S(=O)(=O)c2cccs2)C1,653
11,Cc1cccc(Sc2nccnc2N2CCC(C(=O)NCCC(C)C)CC2)c1,1100
12,Fc1ccc(OCc2nc(-c3ccc(-c4csc(C5CC5)n4)cc3)no2)cc1,1330
13,Cc1nnc([C@@H]2CC(F)(F)CN2C(=O)c2ccc3c(c2)OCO3)o1,703
14,COc1cc(OC)c(NC(=O)N2CCc3nc[nH]c3C2)cc1Cl,583
15,Cc1noc(C)c1CN1CCC(NC(=O)Cc2ccccc2Cl)C1 (stereo not given),613
16,O=C(N1CCc2ccccc2C1)C1(c2ccc(F)cc2)CC1,905
17,O=C(NCC1CCCO1)c1csc(N2CCN(c3cccc(Cl)c3)CC2)n1 (stereo not given),703
18,CN(C)S(=O)(=O)N(CC(=O)Nc1ccc(F)c(Cl)c1)c1ccccc1,986
19,CCNC(=O)c1cnn(-c2ccc(-c3nc(C(C)C)no3)cn2)c1C,983
20,CCN(Cc1cc(Nc2nc(C)cn3c(-c4cn[nH]c4)cnc23)sn1)C(C)(C)CO,682
21,O=C(NCc1ccco1)c1csc(N2CCN(c3cccc(Cl)c3)CC2)n1,1080
22,CN(C)c1ccc(-c2nc3cnccn3c2Nc2ccc3c(c2)OCO3)cc1,737
23,CCC(=O)Nc1ccc(C2(C(=O)NCC3CC3)CCCCC2)cc1,825

row,SMILES,RP-LC retention time [s]
1,O=C(CCNNC(=O)c1ccncc1)NCc1ccccc1,636
2,O=S(=O)(NCc1ccc(F)cc1)c1ccccc1-c1nc(-c2ccccc2)no1,1160
3,Cc1ccc(-c2nc(-c3cccc(-c4ccnn4C)c3)no2)c(C)c1,1330
4,Cc1csc(NC(=O)c2ccc(C(=O)Nc3nc(C)cs3)cc2)n1,845
5,COc1cc(OC)cc(C(=O)N2CCC3(CC2)N=C(c2ccc(Br)cc2)C(=O)N3)c1,907
6,O=C(C1CCC1)N1CCCC(OCc2nc(-c3ccccc3)no2)C1 (stereo not given),791
7,O=C(NCc1nc(-c2ccc(NS(=O)(=O)c3ccc(Cl)cc3)cc2)no1)c1cccs1,909
8,COc1ccc(N2C=C(C(=O)N3CCCC3)S(=O)(=O)c3ccc(F)cc32)cc1Cl,838
9,Cc1ccccc1CN1CCN(c2ccccn2)CC1,566
10,O=C(O)C1CCCN(c2cn[nH]c(=O)c2)C1 (stereo not given),564
11,O=C(NCc1ccco1)c1coc(NC(=O)C2CC2)n1,600
12,Cc1ccc(=O)n(CCNC(=O)c2ccc3nsnc3c2)n1,619
13,Cc1cccc(NC(=O)c2nc(N3CCSCC3)c3cnn(C)c3n2)c1,901
14,O=S(=O)(NCc1ccco1)c1cc(-c2nnc(-c3ccccc3)o2)ccc1F,902
15,CCc1cc(=O)n(CC(=O)NCCC2=CCCCC2)c(N)n1,642
16,CC(C)CN1CCn2cc(S(=O)(=O)Nc3ccc(F)cc3Cl)cc2C1=O,838
17,CCC1Oc2ccc(S(=O)(=O)N3CCC(C(=O)N(CC)c4cccc(C)c4)CC3)cc2NC1=O (stereo not given),974
18,Cc1cccc(-c2nnc(C)c(N3CCN(c4ccccn4)CC3)n2)c1,589
19,CN(Cc1ccccc1)C(=O)CN1C(=O)C2CCCCN2c2ccc(S(=O)(=O)N(C)C)cc21 (stereo not given),939
20,COc1cccc(NC(=O)c2cn3c(n2)CCCC3)c1,598
21,COc1ccc(Cn2nc3c(S(=O)(=O)N4CCc5ccccc5C4)cccn3c2=O)cc1F,945
22,O=C(CSCc1ccccc1)NCC1CCN(C(=O)Oc2ccccc2)CC1,853
23,CCCN1CCn2cc(S(=O)(=O)Nc3ccc(OC)c(Cl)c3)cc2C1=O,770

row,SMILES,RP-LC retention time [s]
1,CC(C)c1c(C2CCN(C(=O)NCc3ccccc3)CC2)noc1N,741
2,Cc1c(Cl)cccc1NC(=O)N1C[C@@H](F)C[C@H]1C(=O)N1CCc2ccccc2C1,864
3,O=C(Cn1c(=O)c2cccn2c2ccc(F)cc21)N1CCCCC1,795
4,COc1ccc(CC(=O)N2CCC(c3nncn3C(C)C)CC2)cc1,622
5,Cc1ccc2c(Nc3ccccc3F)c(C(=O)N3CCCC3)cnc2n1,555
6,O=C(Cn1c(=O)c2cc(-c3cccs3)nn2c2ncccc21)NCc1ccc(F)cc1,821
7,COCc1cc(=O)n(Cc2ccccc2)c(N2CCCC2)n1,777
8,O=C(Cn1nc2c(Oc3cccc(F)c3)nccn2c1=O)Nc1ccc(F)cc1,849
9,CCc1ccc(-n2ncc3c(=O)n(Cc4nc(-c5ccc(F)cc5)no4)cnc32)cc1,1170
10,O=C(NCCCN1CCCC1)C1CCCN(c2ncc(-c3ccc(F)cc3)cn2)C1 (stereo not given),674
11,COc1ccc2c(=O)c(Oc3ccccc3F)c(C)oc2c1,888
12,c1cn(-c2ccc(SC3CCCC3)nn2)cn1,604
13,CCc1cc(=O)n(CC(=O)Nc2ccc3c(c2)OCO3)c(N2CCOCC2)n1,671
14,CCOC(=O)N1CCN(c2ncc(C(=O)Nc3ccc(OC)cc3)c(N)n2)CC1,679
15,CCCc1noc(-c2cccnc2N2CCCN(Cc3ccccc3Cl)CC2)n1,737
16,O=C(NCc1ccccn1)C(=O)c1cn(CC(=O)N2CCOCC2)c2ccccc12,614
17,Fc1cccc(CN2CCC(N3CC4(CCCCC4)C3c3ccncc3)CC2)c1 (stereo not given),560
18,CCc1cccc(NC(=O)c2sc(-c3cn(C)c4ncccc34)nc2C)c1,1040
19,CCc1ccc(NC(=O)N2CCC(n3c(-c4ccco4)nc4cccnc43)C2)cc1 (stereo not given),816
20,O=C(COCc1nnc(C(=O)Nc2cccc(F)c2)s1)NCCc1c[nH]c2ccccc12,893
21,COc1ccc(F)cc1S(=O)(=O)N1CCCC(Cn2c(C)nc3cccnc32)C1 (stereo not given),680
22,Cc1cc(C)cc(NC(=O)C2CCN(c3cncnc3N3CCOCC3)CC2)c1,657
23,CCn1c(=O)sc2cc(S(=O)(=O)N3CCC(C(=O)Nc4ccccc4)CC3)ccc21,878

row,SMILES,RP-LC retention time [s]
1,COc1ccc(CNC(=O)c2nc(N3CCSCC3)c3cnn(C)c3n2)cc1,775
2,COc1ccc(Cl)cc1S(=O)(=O)NCCc1c[nH]c2ncccc12,654
3,COc1nccnc1N1CCC(NC(=O)Cc2ccsc2)C1 (stereo not given),611
4,Cc1cccc(-c2noc(-c3nn(-c4ccc(Cl)cc4)ccc3=O)n2)c1,1000
5,CCOC(=O)CNC(=O)c1cn(CC)nc1S(=O)(=O)N1CCN(c2ccccc2OCC)CC1,962
6,O=C(Cn1ccn2nc(-c3ccc(F)cc3)c(CO)c2c1=O)Nc1cc(F)ccc1F,843
7,Cc1ccn2c(NC(=O)c3c(F)cccc3Cl)c(-c3ccc(F)cc3)nc2c1,701
8,CCC(CC)C(=O)Oc1coc(CSc2nc(C)cs2)cc1=O,882
9,CCCn1cc(CCNC(=O)Nc2ccc(OC)cc2)c2cccnc21,713
10,CN(C)C(=O)c1ccc2c(c1)N(CC(=O)N1CCN(c3ccccc3)CC1)C(=O)CO2,689
11,CCc1ccc(N2CCC(C(=O)NCCc3c[nH]c4ccc(Cl)cc34)C2=O)cc1 (stereo not given),1020
12,COC(=O)c1ccc(CN2CCN(CCN3C(=O)C4C5C=CC(C5)C4C3=O)CC2)cc1 (stereo not given),561
13,CC(=O)c1cccc(NC(=O)c2nc(N(C)C)c3c(C)cc(C)nc3n2)c1,564
14,CC(C)C(=O)Nc1ccc(-n2cnc(C(=O)N3CCCCCC3)c2)nc1,710
15,CCNC(=O)N1CCCC(c2cccc(C(=O)NCc3cccc(C(F)(F)F)c3)c2)C1 (stereo not given),900
16,CC1CCN(S(=O)(=O)c2cccn(CC(=O)OC(C)(C)C)c2=O)CC1,965
17,CCn1ncn2cc(S(=O)(=O)Nc3ccccc3F)cc2c1=O,830
18,Cc1cc(C(=O)N2CCCn3ccnc3C2C2CCCC2)n[nH]1 (stereo not given),584
19,CCOC(=O)c1nc(Nc2ccc(C(=O)OC)cc2)c2ccccc2n1,841
20,Cc1cc(F)ccc1NC(=O)C1CCCN(c2cnc3nccnc3c2)C1 (stereo not given),711
21,COc1ccc(NC(=O)c2cc(C(C)C)n3nccc3n2)cc1,1040
